Read-outs that look alike come from different tables or passages of the source.
How the values were obtained:
[1] = system: HT29 colorectal carcinoma; assay: qHTS cell viability screen (Cell Titer Glo), HT29; format: cell-based; settings: for CC50: HT29 colorectal carcinoma, 72 hours, cell viability Cell Titer Glo, read-out: CC50 HT29
[2] = system: REH cells (precursor B-cell ALL); assay: Additional cancer cell line panel, REH; format: cell-based, human; settings: confidence intervals in parentheses, NA: not active, read-out: EC50 REH
[3] = system: NALM16 cell line (acute lymphoblastic leukemia); assay: Additional cancer cell line panel, NALM16; format: cell-based, human; settings: confidence intervals in parentheses, NA: not active
[4] = system: BJ cells, normal human foreskin fibroblast cell line; assay: BJ cell cytotoxicity counter screen; settings: read-out: EC50 BJ (cytotoxicity); BJ normal human foreskin fibroblasts; confidence intervals in parentheses
Excerpt: (§1) Most analogs in the presented series are lipophilic while also containing a positively charged amine. Lipophilic basic amines can accumulate in cell membranes if their lipophilic atom groups form favorable non-polar contacts with lipid chains while their charged amine is interacting with fatty acid head groups. Such association with lipids can lead to cytotoxicity through membrane destabilization. Therefore, we evaluated a number of representative compounds against BJ cells, a normal human foreskin fibroblast cell line, where cytotoxicity was determined at 10 µM drug concentration, as described previously.
(§2) minimum locked at 0 and 100 respectively.
(§3) children with ALL in relapse.
(§4) foreskin fibroblast cell line (BJ).
(§5) Table 2. […] SSA: Sulindac sulfide

[5] = system: Cell line 697 (ALL in relapse); assay: Additional cancer cell line panel, 697; format: cell-based, human; settings: confidence intervals in parentheses, NA: not active
Excerpt: as §1, §2, §3, §4, §5

[6] = system: RAJI cells (Burkitt's leukaemia/lymphoma); assay: Additional cancer cell line panel, RAJI; format: cell-based; settings: confidence intervals in parentheses, NA: not active
[7] = system: PC3 prostate cancer cell line; assay: qHTS cell viability screen (Cell Titer Glo), PC3; format: cell-based; settings: for CC50: PC3 prostate, 72 hours, cell viability Cell Titer Glo, read-out: CC50 PC3
[8] = system: Acute T cell leukemia Jurkat e6-1 cells (JURKT); assay: Additional cancer cell line panel, JURKT; format: cell-based; settings: confidence intervals in parentheses, NA: not active
[9] = system: MDA-MB-231 breast cancer cell line; assay: qHTS cell viability screen (Cell Titer Glo), MDA-MB-231; format: cell-based; settings: for CC50: MDA-MB-231 breast, 96 hours, cell viability Cell Titer Glo, read-out: CC50 MDA-MB-231
[10] = BJ cell cytotoxicity counter screen; settings: human, BJ cells (normal human foreskin fibroblast cell line)
Excerpt: as §1, §2, §3, §4, §5

Row | Compound | EC50 [4] [µM] | CC50 [1] [µM] | CC50 [7] [µM] | CC50 [9] [µM] | CC50 ([1]; Homo sapiens, HT-29, 72 h) [µM] | melting point [°C] | CC50 ([7]; 72 h) [µM] | CC50 ([9]; Homo sapiens, MDA-MB-231, 96 h) [µM] | EC50 [10] [µM] | other results
1 | 3,4,5-trimethoxybenzylidene-3-indenylmethyl-2-phenylacetamide [Compound 26] | > 22.7 |  |  |  |  |  |  |  |  | increased anticancer activity in comparison with SSA, colon cancer cells ([1]; versus SSA): 6-7 fold; EC50 [2]: 19 µM; EC50 [3]: 8.1 µM; EC50 [5]: 15 µM; EC50 [6]: 8.3 µM; increased anticancer activity in comparison with SSA, prostate cancer cells ([7]; versus SSA): 6-7 fold; EC50 [8]: 11 µM; increased anticancer activity in comparison with SSA, breast cancer cells ([9]; versus SSA): 27 fold
2 | CSc1ccc(/C=C2/C(C)=C(CCNCc3ccccc3)c3cc(F)ccc32)cc1 [Compound 7] | > 7.57 | 21.8 ± 2.29 | > 50 | 46.5 ± 1.92 |  |  |  |  |  | 
3 | CSc1ccc(/C=C2/C(C)=C(CCNCc3ccco3)c3cc(F)ccc32)cc1 [Compound 8] | > 7.57 | 4.27 ± 0.33 | 9.94 ± 0.77 | 7.77 ± 0.54 |  |  |  |  |  | 
4 | CSc1ccc(/C=C2/C(C)=C(CCNCCN3CCCCC3)c3cc(F)ccc32)cc1 [Compound 9] | > 7.57 | 1.81 ± 0.06 | 4.78 ± 0.2 | 3.73 ± 0.21 |  |  |  |  |  | 
5 | CC1=C(CCNCc2ccccc2)c2cc(F)ccc2/C1=C\c1ccc(S(C)(=O)=O)cc1 [Compound 12] |  |  |  |  | 3.39 ± 0.28 | 96 to 98 | 7.02 ± 0.48 | 4.52 ± 0.77 |  | 
6 | CSc1ccc(/C=C2/C(C)=C(CCN)c3cc(F)ccc32)cc1 [Compound 13] |  |  |  |  | 4.05 ± 0.16 |  | 7.46 ± 0.46 | 7.2 ± 0.29 | > 7.57 | 
7 | CSc1ccc(/C=C2/C(C)=C(CCNC(=O)c3ccco3)c3cc(F)ccc32)cc1 [Compound 14] |  |  |  |  | 9.24 ± 1.18 | 168 to 170 | 8.92 ± 0.83 | 16.8 ± 3.2 | > 7.57 | 
8 | COc1cc(/C=C2/C(C)=C(CN)c3cc(F)ccc32)cc(OC)c1OC [Compound 17] |  |  |  |  | 14.6 ± 2.42 | 108 to 110 | 29.7 ± 4.49 | 15.3 ± 4.44 |  | 
9 | CSc1ccc(/C=C2/C(C)=C(CNC(=O)CN)c3cc(F)ccc32)cc1 [Compound 21] | > 22.7 | 5.49 ± 0.21 | 7.27 ± 0.31 | 7.3 ± 0.62 |  |  |  |  |  | 
10 | CSc1ccc(/C=C2/C(C)=C(CNC(=O)[C@@H](N)CO)c3cc(F)ccc32)cc1 [Compound 22] |  |  |  |  | 5.98 ± 0.24 | 146 to 148 | 6.03 ± 0.41 | 7.43 ± 0.87 | > 22.7 | 
11 | CSc1ccc(/C=C2/C(C)=C(CNC(=O)[C@@H](N)CC(C)C)c3cc(F)ccc32)cc1 [Compound 23] |  |  | 6.21 ± 0.49 | 6.7 ± 0.71 |  |  | < 10 | < 10 | 16.4 | EC50 ([2]; Homo sapiens, REH): 16 µM; EC50 ([3]; Homo sapiens, NALM16): 30 µM
12 | CSc1ccc(/C=C2/C(C)=C(CNC(=O)[C@@H](N)C(C)C)c3cc(F)ccc32)cc1 [Compound 24] |  |  | 5.16 ± 0.5 | 6.81 ± 0.63 |  | 133 to 135 | < 10 | < 10 | 16.7 | EC50 ([2]; Homo sapiens, REH): 14 µM; EC50 ([5]; Homo sapiens): 16 µM; EC50 ([6]; Homo sapiens, Raji): 39 µM; EC50 ([8]; Homo sapiens, Jurkat E6.1): 15 µM
13 | CSc1ccc(/C=C2/C(C)=C(CNC(=O)[C@@H]3CCCN3)c3cc(F)ccc32)cc1 [Compound 25] |  |  |  |  | 3.15 ± 0.17 |  | 6.66 ± 0.42 | 4.35 ± 0.19 | > 22.7 | EC50 ([2]; Homo sapiens, REH): 150 µM
14 | COc1cc(/C=C2/C(C)=C(CNC(C)=O)c3cc(F)ccc32)cc(OC)c1OC [Compound 28] |  |  |  |  | 6.44 ± 1.4 | 183 to 185 | 23.3 ± 2.61 | 5.77 ± 1.55 |  | 
15 | COc1cc(/C=C2/C(C)=C(CNC(=O)CN)c3cc(F)ccc32)cc(OC)c1OC [Compound 29] | > 22.7 | 8.51 ± 1.7 | 17.9 ± 2.08 | 9.92 ± 2.13 |  |  |  |  |  | EC50 [3]: 230 µM
16 | COc1cc(/C=C2/C(C)=C(CNC(=O)[C@@H](N)CO)c3cc(F)ccc32)cc(OC)c1OC [Compound 30] |  |  |  |  | 11.1 ± 1.35 | 118 to 120 | 26.5 ± 6.01 | 11.9 ± 2.27 | > 22.7 | EC50 ([2]; Homo sapiens, REH): 53 µM
